According to US4999436A, “Aryl-substituted thiophene 3-ols, derivatives and analogs useful as lipoxgenase inhibitors” (Merck & Co., Inc., priority 1989, dated 1991):
Values joined by “and” are separate entries in the source; they are usually repeats but may differ in a detail not shown here. Equal entries are not always repeated.

Key:
[1] = target: T1, 5-lipoxygenase (Rattus norvegicus, UniProt P12527); experiment: PMN5LO assay: inhibition of LTB4 production in A23187-stimulated rat peritoneal PMN (RIA); assay type: cell-based; conditions: for IC50: estimated concentration required for 50% inhibition
T1 construct: endogenous in cells; host or cells: casein-elicited peritoneal polymorphonuclear leukocytes of male Sprague-Dawley rats
T1 sequence (P12527 1-673): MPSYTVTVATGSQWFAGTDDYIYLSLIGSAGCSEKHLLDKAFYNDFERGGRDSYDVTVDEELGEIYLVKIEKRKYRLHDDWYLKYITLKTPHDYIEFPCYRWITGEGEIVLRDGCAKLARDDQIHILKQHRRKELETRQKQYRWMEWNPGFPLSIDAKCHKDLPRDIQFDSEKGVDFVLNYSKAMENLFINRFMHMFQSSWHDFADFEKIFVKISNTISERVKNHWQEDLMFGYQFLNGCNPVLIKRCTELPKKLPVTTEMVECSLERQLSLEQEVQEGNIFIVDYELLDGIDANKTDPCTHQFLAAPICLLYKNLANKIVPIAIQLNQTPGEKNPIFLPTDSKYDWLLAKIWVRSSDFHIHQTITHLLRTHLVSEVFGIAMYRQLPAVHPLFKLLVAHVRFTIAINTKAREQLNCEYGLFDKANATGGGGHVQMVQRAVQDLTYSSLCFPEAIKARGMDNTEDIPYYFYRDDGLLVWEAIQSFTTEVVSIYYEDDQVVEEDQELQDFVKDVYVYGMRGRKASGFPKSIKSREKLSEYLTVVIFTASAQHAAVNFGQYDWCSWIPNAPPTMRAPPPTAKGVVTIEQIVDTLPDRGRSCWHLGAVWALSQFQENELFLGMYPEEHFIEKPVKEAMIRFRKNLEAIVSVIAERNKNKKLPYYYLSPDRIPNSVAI
Method: (§1) Two screening methods were employed for the purposes of evaluating the biological activities of the compounds of the present invention. The PMN5LO assay is a direct measure of the capacity to inhibit 5-lipoxygenase. The second protocol, RSVM-CO, is a method of determining inhibition of cyclooxygenase enzyme activity and as such it serves as a negative control.
Elicition of Rat Peritoneal polymorphonuclear leukoytes (PMN)
Male Sprague-Dawley rats (about 350 grams) were injected intraperitoneally the day before use with 8 ml of 12% sodium caseinate. The next day the animals were killed by CO2 asphyxiation and the peritoneal cavity lavaged twice with 20 ml of Hanks balanced salts containing 15 mM HEPES (pH 7.4), 1.4 mM Ca^++ and 0.7 mM Mg^++ (Hepes-Hanks). The suspensions were filtered through plastic mesh and centrifuged at […] for 5 minutes. The cells were resuspended in 50 ml Hepes-Hanks and recentrifuged. The PMN pellets were combined and suspended at 1.25×10^7 cells/ml.
The cell suspension was then diluted 1:10, preincubated 5 minutes at 37° C. and distributed in 200 μl aliquots in the wells of 96 well microtiter plates. The wells had previously received samples of the compounds of the present invention, controls, etc., in 25 μl of 0.001% fatty acidfree BSA in Hepes-Hanks. The plates were incubated 2 minutes at 37° C. and then the cells were stimulated to produce LTB4 by the addition of 25 μl of 100 μM calcium ionophore, designated A23187. After 4 minutes at 37° C. the plates were frozen in dry ice.
Radioimmunoassay (RIA) of LTB4
The frozen plates were thawed to 4° C. and 25 μl aliquots removed to V well plates. Antibody to LTB4 (50 μl) was added and, after 15 minutes at room temperature, 50 μl of ^3 H-LTB4 was added and the plates were stored overnight at 4° C. to allow equilibration. The next day the "free" 3H-LTB4 was removed by adsorption to dextran coated charcoal [90 μl per well of a 4% charcoal suspension with 0.25% Dextran T-70 in 10 mM potassium phosphate (pH 7.3) containing lmM EDTA and 0.25 mM thimerasol] during a 10 minute ice temperature incubation. The charcoal was removed by a 10 minute centrifugation at 200 sg. Aliquots of the supernatant were counted in a Packard 460, analyzed in a Masscomp computer and the data drawn up as % inhibition of LTB4 production.

[2] = target: T2, cyclooxygenase (Ovis aries, UniProt P05979); experiment: RSVM-CO: Ram Seminal Vesicle Microsomal Cyclooxygenase assay; assay type: biochemical; conditions: for inhibition at 0.1 µg/mL: 0.1 μg/ml; for inhibition at 1 µg/mL: 1 μg/ml; for inhibition at 0.01 µg/mL: 0.01 μg/ml
T2 construct: Ram seminal vesicular glands were trimmed of fat; from tissue; host or cells: ram seminal vesicular glands, microsomal pellet (105K xg)
T2 sequence (P05979 25-600): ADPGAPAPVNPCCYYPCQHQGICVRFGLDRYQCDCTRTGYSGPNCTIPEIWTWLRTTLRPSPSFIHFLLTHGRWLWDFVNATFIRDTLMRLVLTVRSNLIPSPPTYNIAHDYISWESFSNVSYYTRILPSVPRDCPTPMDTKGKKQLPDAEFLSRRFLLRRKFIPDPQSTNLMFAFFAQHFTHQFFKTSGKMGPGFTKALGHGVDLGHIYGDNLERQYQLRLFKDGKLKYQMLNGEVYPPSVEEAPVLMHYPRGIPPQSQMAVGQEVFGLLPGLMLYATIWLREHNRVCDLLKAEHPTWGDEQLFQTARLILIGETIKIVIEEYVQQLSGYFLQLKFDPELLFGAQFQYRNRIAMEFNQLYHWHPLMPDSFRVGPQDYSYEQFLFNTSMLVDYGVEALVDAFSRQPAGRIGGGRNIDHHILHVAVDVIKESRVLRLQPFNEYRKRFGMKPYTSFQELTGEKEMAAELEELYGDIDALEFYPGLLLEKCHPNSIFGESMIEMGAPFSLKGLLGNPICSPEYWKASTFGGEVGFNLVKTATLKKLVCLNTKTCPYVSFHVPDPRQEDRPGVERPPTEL
From the text: as §1
B. Ram Seminal Vesicle Microsomal Cyclooxygenase (RSVM-CO) Assay Protocol
Ram seminal vesicular glands were trimmed of fat, 50 grams diced into 250 mls ice cold 0.1 M potassium phosphate (pH 7.6) buffer and homogenized using a Brinkman Polytron. The suspension was centrifuged 10 minutes at […] (4° C.) and the supernatant filtered through two cheesecloth layers. The filtrate was centrifuged 160 minutes at 105K xg, the supernatant thereof discarded, and the pellet surface rinsed with a small volume of buffer. The pellets were combined in a small volume, briefly homogenized with the Polytron and frozen in 0.5 ml aliquots at -80° C. The protein concentration was about 50 mg/ml.
The thawed enzyme was diluted 1:63 with 0.125 M Na EDTA (pH 8.0) containing 50 μg/ml BSA. A substrate-cofactor premix was prepared with 66 μM ^14 C-arachidonic acid (about 20K cpm/12.5 μl) in 500 μl 0.125 M Na EDTA (pH 8.0) plus 10 μl 50 mM hydroquinone and 10 μl 200 mM glutathione. To each sample well in the 96 well plate, agents dissolved in 0.5 μ DMSO were added, followed by 12.5 μl of the diluted enzyme. After a 4 minute preincubation at room temperature, 12.5 μl of the substrate-cofactor mix was added to start the reaction. The reaction was terminated after 20 minutes at room temperature by adding 25 μl of methanol containing 200 μg PGE2 and 400 μg AA per ml.
The entire reaction mixture was spotted onto a preadsorbent silica gel GF thin layer plate and, after air drying 45 minutes, developed 12 cm in ethyl acetate:glacial acetic acid (99:1).
The developed lanes were scanned for the distribution of radiolabel using a Bioscan Imaging Detector and the integrated peaks compared to standards and controls yielding % inhibition.

| Compound | inhibition at 1 µg/mL ([1]; 1 μg/ml) [%] | inhibition at 0.012 µg/mL ([1]; 0.012 μg/ml) [%] | inhibition at 0.037 µg/mL ([1]; 0.037 μg/ml) [%] | inhibition at 0.11 µg/mL ([1]; 0.11 μg/ml) [%] | inhibition at 0.33 µg/mL ([1]; 0.33 μg/ml) [%] | IC50 [1] | further results |
| --- | --- | --- | --- | --- | --- | --- | --- |
| CC(=O)Oc1c(C)sc(-c2ccccc2)c1-c1ccccc1 [Compound 9] | 13 |  |  |  |  |  |  |
| CC(=O)Oc1cc(-c2ccccc2)oc1-c1ccccc1 |  | 25 | 6 | 36 | 53 |  | PMN5LO % inhibition ([1]; 1 μg/ml): 33% and 66% |
| c1ccc(-c2ccc(-c3ccccc3)s2)cc1 | 38 | 13 | 0 | 15 | 23 | 4000 nM |  |
| CC(=O)Oc1cc(-c2ccccc2)sc1-c1cccnc1 [Compound 16, 3-Acetoxy-2-(3'-pyridyl)-5-phenylthiophene] | 100 |  |  |  | 94 | 230 nM | inhibition at 0.1 µg/mL [2]: 0%; inhibition at 1 µg/mL [2]: 0%; PMN5LO % inhibition ([1]; 0.33 μg/ml): 84%; PMN5LO % inhibition ([1]; 1 μg/ml): 88% |
| COCOc1cc(-c2ccccc2)sc1-c1ccccc1 [Compound 12, 2,5-Diphenyl-3-(methoxymethoxy)-thiophene] |  |  |  | 31 | 74 | 580 nM and 350 nM | inhibition at 0.01 µg/mL [2]: 28%; inhibition at 0.1 µg/mL [2]: 0%; inhibition at 1 µg/mL [2]: 100%; PMN5LO % inhibition ([1]; 0.11 μg/ml): 40%; PMN5LO % inhibition ([1]; 0.33 μg/ml): 84% |
| COc1ccc(-c2sc(-c3ccccc3)cc2OC(C)=O)cc1 [Compound 14, 3-Acetoxy-2-(4'-methoxyphenyl)-5-phenylthiophene] | 100 | 24 |  |  | 100 | 80 nM | inhibition at 0.1 µg/mL [2]: 0%; PMN5LO % inhibition ([1]; 0.012 μg/ml): 12%; PMN5LO % inhibition ([1]; 0.11 μg/ml): 91% and 46%; PMN5LO % inhibition ([1]; 0.33 μg/ml): 85%; PMN5LO % inhibition ([1]; 1 μg/ml): 80% |
| CC(=O)Oc1cc(-c2cccc(C(F)(F)F)c2)sc1-c1ccccc1 [Compound 5] | 38 |  |  |  |  |  |  |
| COc1ccc(-c2sc3c(c2OC(C)=O)CCCc2ccccc2-3)cc1 [Compound 20] |  |  |  |  |  | > 3000 nM |  |
| CCC(=O)Oc1cc(-c2cccc(C(F)(F)F)c2)sc1-c1ccccc1 [Compound 6] | 22 |  |  |  |  |  |  |
| CC(=O)Oc1cc(-c2ccccc2)sc1-c1ccccc1 [Compound 3] |  | 27 | 57 | 100 |  | 88 nM and 74 nM | inhibition at 0.01 µg/mL [2]: 13%; inhibition at 0.1 µg/mL [2]: 13%; inhibition at 1 µg/mL [2]: 8%; inhibition at 10 µg/mL ([2]; 10 μg/ml): 29%; PMN5LO % inhibition ([1]; 0.012 μg/ml): 38%; PMN5LO % inhibition ([1]; 0.037 μg/ml): 56%; inhibition at 0.05 µg/mL ([1]; 0.05 μg/ml): 100% |
| Cc1ccccc1-c1cc(O)c(-c2ccccc2)s1 [Compound 18, 3-Hydroxy-5-(2-methylphenyl)-2-phenylthiophene] | 96 | 20 | 46 | 96 | 100 | 120 nM |  |
| COc1cc(-c2ccccc2)sc1-c1ccccc1 [Compound 19] | 0 | 0 | 0 | 0 | 0 |  |  |
| COc1ccc(-c2sc3c(c2OC(C)=O)Cc2ccccc2-3)cc1 |  |  |  |  |  | 2500 nM | PMN5LO % inhibition ([1]; 0.012 μg/ml): 0%; inhibition at 0.37 µg/mL ([1]; 0.37 μg/ml (so in the source)): 42% |
| CC(=O)Oc1cc(-c2ccccc2)sc1-c1ccccc1C | 79 | 15 | 15 | 17 | 34 |  |  |
| CC(=O)Oc1csc(-c2ccccc2)c1 [Compound 1] | 18 | 5 | 0 | 1 | 19 |  |  |
| CC(=O)Oc1c(-c2ccccc2)sc(-c2ccccc2)c1-c1ccccc1 [Compound 8] |  |  |  |  |  |  | PMN5LO % inhibition ([1]; 1 μg/ml): 18% |
| Oc1cc(-c2ccccc2)sc1-c1cccnc1 [Compound 22] | 87 | 14 | 19 | 45 | 81 |  |  |
